Where a name gives a salt, the structure may show the parent alone.
Tests used:
[1] = Thermodynamic stability of polymorphic forms; assay type: physicochemical
Description: Crystalline eprosartan acid exists in two different polymorphic forms—the α (alpha) and β (beta) forms. The a polymorphic form of eprosartan acid has the highest thermodynamic stability of up to 200° C. Although the Examples use the α form of eprosartan acid, the β form of eprosartan acid can also be used in the same way.

[2] = in vivo; cited from earlier work

| highest thermodynamic stability of up to [1] | SMILES | variable and mean absolute bioavailability [2] |
| --- | --- | --- |
| up to 200 °C | CCCCc1ncc(/C=C(\Cc2cccs2)C(=O)O)n1Cc1ccc(C(=O)O)cc1 [a polymorphic form of eprosartan acid] |  |
|  | CCCCc1ncc(/C=C(\Cc2cccs2)C(=O)O)n1Cc1ccc(C(=O)O)cc1 [eprosartan mesylate] | approximately 13% |

Reference: patent US20120302555A1, “METHOD OF TREATMENT USING EPROSARTAN” (priority 2008, published 2012)
